Measurements reported in ChEMBL document CHEMBL1140643, “Synthesis of 4-phenoxybenzamide adenine dinucleotide as NAD analogue with inhibitory activity against enoyl-ACP reductase (InhA) of Mycobacterium tuberculosis” (Bioorg Med Chem Lett, 2007).

What was measured:
[1] = molecular target: T1, Enoyl-[acyl-carrier-protein] reductase [NADH] (Mycobacterium tuberculosis, UniProt P9WGR1); experiment: Inhibition of Mycobacterium tuberculosis InhA
T1 sequence (P9WGR1 whole entry): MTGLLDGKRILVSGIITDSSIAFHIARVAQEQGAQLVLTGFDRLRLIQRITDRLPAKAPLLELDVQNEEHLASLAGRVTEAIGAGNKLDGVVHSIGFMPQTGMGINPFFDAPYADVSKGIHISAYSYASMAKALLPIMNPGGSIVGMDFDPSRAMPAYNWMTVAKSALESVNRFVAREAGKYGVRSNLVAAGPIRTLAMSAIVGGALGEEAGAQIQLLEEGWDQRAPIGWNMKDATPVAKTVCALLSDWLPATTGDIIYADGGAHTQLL

[2] = molecular target: T2, Enoyl-[acyl-carrier-protein] reductase [NADH] (Mycobacterium tuberculosis) (UniProt P9WGR1); experiment: Inhibition of Mycobacterium tuberculosis InhA at 700 uM
T2 sequence (whole entry): T1 sequence (P9WGR1 whole entry)

[3] = molecular target: T2, Enoyl-[acyl-carrier-protein] reductase [NADH] (Mycobacterium tuberculosis); experiment: Inhibition of Mycobacterium tuberculosis InhA at 100 uM

NC(=O)c1cc([C@@H]2O[C@H](COP(=O)(O)OP(=O)(O)OC[C@H]3O[C@@H](n4cnc5c(N)ncnc54)[C@H](O)[C@@H]3O)[C@@H](O)[C@H]2O)ccc1Oc1ccccc1
IC50 [1]: 27 µM

NC(=O)c1cc([C@@H]2O[C@H](CO)[C@@H](O)[C@H]2O)ccc1Oc1ccccc1
inhibition [2]: 25%

NC(=O)c1cc([C@@H]2O[C@H](COP(=O)(O)O)[C@@H](O)[C@H]2O)ccc1Oc1ccccc1
inhibition [3]: 12%
